Measurements published in PubChem BioAssay (NCI).
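Test compounds were applied to cells in 96-well plates for 48 hours at 5 doses. At the GI50, growth is halved. TGI marks complete inhibition of growth.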

What was measured:
Assay in all cases: growth of human tumour cells (NCI), 48 h
BT-549 breast = test system: BT-549 breast
UACC-257 melanoma = test system: UACC-257 melanoma
OVCAR-3 ovarian = test system: OVCAR-3 ovarian
SF-268 CNS = test system: SF-268 CNS
SK-MEL-5 melanoma = test system: SK-MEL-5 melanoma
MDA-MB-468 breast = test system: MDA-MB-468 breast
NCI/ADR-RES ovarian = test system: NCI/ADR-RES ovarian
SF-295 CNS = test system: SF-295 CNS
MOLT-4 leukemia = test system: MOLT-4 leukemia
A498 renal = test system: A498 renal
DU-145 prostate = test system: DU-145 prostate
M14 melanoma = test system: M14 melanoma
NCI-H23 lung = test system: NCI-H23 lung
K-562 leukemia = test system: K-562 leukemia
SNB-75 CNS = test system: SNB-75 CNS
KM12 colon = test system: KM12 colon
MCF7 breast = test system: MCF7 breast
COLO 205 colon = test system: COLO 205 colon
RXF 393 renal = test system: RXF 393 renal
NCI-H522 lung = test system: NCI-H522 lung
HCC-2998 colon = test system: HCC-2998 colon
NCI-H226 lung = test system: NCI-H226 lung
OVCAR-5 ovarian = test system: OVCAR-5 ovarian
SNB-19 CNS = test system: SNB-19 CNS
SW-620 colon = test system: SW-620 colon
LOX IMVI melanoma = test system: LOX IMVI melanoma
786-0 renal = test system: 786-0 renal
U251 CNS = test system: U251 CNS
HT29 colon = test system: HT29 colon
TK-10 renal = test system: TK-10 renal
HOP-62 NSCLC = test system: HOP-62 NSCLC
HCT-116 colon = test system: HCT-116 colon
SK-MEL-28 melanoma = test system: SK-MEL-28 melanoma
T-47D breast = test system: T-47D breast
RPMI-8226 leukemia = test system: RPMI-8226 leukemia
A549 NSCLC = test system: A549 NSCLC
SK-OV-3 ovarian = test system: SK-OV-3 ovarian
HS 578T breast = test system: HS 578T breast
SF-539 CNS = test system: SF-539 CNS
MDA-MB-435 = test system: MDA-MB-435
ACHN renal = test system: ACHN renal
EKVX NSCLC = test system: EKVX NSCLC
PC-3 prostate = test system: PC-3 prostate
CCRF-CEM leukemia = test system: CCRF-CEM leukemia
CAKI-1 renal = test system: CAKI-1 renal
IGROV1 ovarian = test system: IGROV1 ovarian
SK-MEL-2 melanoma = test system: SK-MEL-2 melanoma
OVCAR-4 ovarian = test system: OVCAR-4 ovarian
HL-60(TB) leukemia = test system: HL-60(TB) leukemia
HCT-15 colon = test system: HCT-15 colon
MALME-3M melanoma = test system: MALME-3M melanoma
SN12C renal = test system: SN12C renal
NCI-H460 lung = test system: NCI-H460 lung
HOP-92 NSCLC = test system: HOP-92 NSCLC
UACC-62 melanoma = test system: UACC-62 melanoma
OVCAR-8 ovarian = test system: OVCAR-8 ovarian

COc1cccc(-c2ccc(/C=N/NC(=O)c3[nH]c4ccc(Br)cc4c3-c3ccccc3)o2)c1
GI50 (BT-549 breast): 2.8 µM | TGI (BT-549 breast): 7.06 µM | GI50 (UACC-257 melanoma): 6.86 µM | TGI (UACC-257 melanoma): 69.2 µM | GI50 (OVCAR-3 ovarian): 2.48 µM | TGI (OVCAR-3 ovarian): 8.6 µM | GI50 (SF-268 CNS): 4.94 µM | TGI (SF-268 CNS): 48.3 µM | GI50 (SK-MEL-5 melanoma): 2.94 µM | TGI (SK-MEL-5 melanoma): 11.3 µM | GI50 (MDA-MB-468 breast): 2.29 µM | TGI (MDA-MB-468 breast): 6.38 µM | GI50 (NCI/ADR-RES ovarian): 2.4 µM | TGI (NCI/ADR-RES ovarian): 6.26 µM | GI50 (SF-295 CNS): 3.16 µM | TGI (SF-295 CNS): 14.1 µM | GI50 (MOLT-4 leukemia): 3.34 µM | TGI (MOLT-4 leukemia): 12.3 µM | GI50 (A498 renal): 93.2 µM | TGI (A498 renal): > 100 µM | GI50 (DU-145 prostate): 4.19 µM | TGI (DU-145 prostate): > 100 µM | GI50 (M14 melanoma): 3.49 µM | TGI (M14 melanoma): > 100 µM | GI50 (NCI-H23 lung): 5.23 µM | TGI (NCI-H23 lung): 40.3 µM | GI50 (K-562 leukemia): 2.89 µM | TGI (K-562 leukemia): 12.9 µM | GI50 (SNB-75 CNS): 2.87 µM | TGI (SNB-75 CNS): 15.1 µM | GI50 (KM12 colon): 3.96 µM | TGI (KM12 colon): 49.6 µM | GI50 (MCF7 breast): 3.5 µM | TGI (MCF7 breast): > 100 µM | GI50 (COLO 205 colon): 2.48 µM | TGI (COLO 205 colon): 7.74 µM | GI50 (RXF 393 renal): 2.37 µM | TGI (RXF 393 renal): 5.93 µM | GI50 (NCI-H522 lung): 2 µM | TGI (NCI-H522 lung): 4.72 µM | GI50 (HCC-2998 colon): 4.16 µM | TGI (HCC-2998 colon): 72.9 µM | GI50 (NCI-H226 lung): 10.2 µM | TGI (NCI-H226 lung): 50.6 µM | GI50 (OVCAR-5 ovarian): 4.31 µM | TGI (OVCAR-5 ovarian): 44.9 µM | GI50 (SNB-19 CNS): 3.84 µM | TGI (SNB-19 CNS): 20.2 µM | GI50 (SW-620 colon): 4.6 µM | TGI (SW-620 colon): > 100 µM | GI50 (LOX IMVI melanoma): 3.84 µM | TGI (LOX IMVI melanoma): 16.6 µM | GI50 (786-0 renal): 2.84 µM | TGI (786-0 renal): 8.73 µM | GI50 (U251 CNS): 3.44 µM | TGI (U251 CNS): 12.7 µM | GI50 (HT29 colon): 2.36 µM | TGI (HT29 colon): 5.47 µM | GI50 (TK-10 renal): 29.1 µM | TGI (TK-10 renal): > 100 µM | GI50 (HOP-62 NSCLC): 3.54 µM | TGI (HOP-62 NSCLC): 15.3 µM | GI50 (HCT-116 colon): 3.33 µM | TGI (HCT-116 colon): 12.3 µM | GI50 (SK-MEL-28 melanoma): 7.18 µM | TGI (SK-MEL-28 melanoma): 52.9 µM | GI50 (T-47D breast): 7.94 µM | TGI (T-47D breast): > 100 µM | GI50 (RPMI-8226 leukemia): 3.05 µM | TGI (RPMI-8226 leukemia): 10.9 µM | GI50 (A549 NSCLC): 3.55 µM | TGI (A549 NSCLC): 17.7 µM | GI50 (SK-OV-3 ovarian): 3.61 µM | TGI (SK-OV-3 ovarian): 36.2 µM | GI50 (HS 578T breast): 3.73 µM | TGI (HS 578T breast): 41.2 µM | GI50 (SF-539 CNS): 2.35 µM | TGI (SF-539 CNS): 5.51 µM | GI50 (MDA-MB-435): 2.72 µM | TGI (MDA-MB-435): 8.57 µM | GI50 (ACHN renal): 5.43 µM | TGI (ACHN renal): > 100 µM | GI50 (EKVX NSCLC): 6.71 µM | TGI (EKVX NSCLC): > 100 µM | GI50 (PC-3 prostate): 3.96 µM | TGI (PC-3 prostate): 75 µM | GI50 (CCRF-CEM leukemia): 4.19 µM | TGI (CCRF-CEM leukemia): 9.66 µM | GI50 (CAKI-1 renal): 11.4 µM | TGI (CAKI-1 renal): > 100 µM | GI50 (IGROV1 ovarian): 4.6 µM | TGI (IGROV1 ovarian): > 100 µM | GI50 (SK-MEL-2 melanoma): 3.04 µM | TGI (SK-MEL-2 melanoma): 9.76 µM | GI50 (OVCAR-4 ovarian): 26.2 µM | TGI (OVCAR-4 ovarian): > 100 µM | GI50 (HL-60(TB) leukemia): 2.21 µM | TGI (HL-60(TB) leukemia): 5.08 µM | GI50 (HCT-15 colon): 3.34 µM | TGI (HCT-15 colon): 16.9 µM | GI50 (MALME-3M melanoma): 3.72 µM | TGI (MALME-3M melanoma): 32.6 µM | GI50 (SN12C renal): 4.13 µM | TGI (SN12C renal): 18.9 µM | GI50 (NCI-H460 lung): 3.26 µM | TGI (NCI-H460 lung): 18 µM | GI50 (HOP-92 NSCLC): 12.8 µM | TGI (HOP-92 NSCLC): 46 µM | GI50 (UACC-62 melanoma): 4.17 µM | TGI (UACC-62 melanoma): > 100 µM | GI50 (OVCAR-8 ovarian): 2.39 µM | TGI (OVCAR-8 ovarian): 5.57 µM
